In one assay the test system is PI3K. In words: Cellular testing of PI3K inhibitors: P-S473-PKB Luminex assay in PC3 cells. It counts as cell-based. Particulars: phosphorylation of PKB at Serin 473, 30 min incubation, serum-free. The method, then: Description of the Method for the Cellular Testing of PI3K Inhibitors The measure used for the cellular PI3K activity is the PI3K-dependent phosphorylation of PKB at Serin 473. The cellular assay for determination of the P-S473-PKB level is carried out as a Luminex assay in 96-well format in PC3 cells. […] PC3 cells are sown out with 20,000 cells per well in 100 μl medium (45% RPMI1460/45% Ham's F12/10% FCS) and incubated on the following day for 30 min with a serial dilution of the test substance (7 concentrations) under serum-free conditions. The cells are subsequently lysed using 90 μl of lysis buffer (20 mM Tris/HCl pH 8.0, 150 mM NaCl, 1% NP40, 10% glycerol, 1% phosphatase inhibitor I, 1% phosphatase inhibitor II, 0.1% protease inhibitor cocktail III, 0.01% benzonase) per well, and the lysates are separated off from insoluble cell constituents by means of centrifugation through a 96-well filter plate (0.65 μm). The lysates are incubated overnight at 4° C. with shaking with Luminex beads to which an anti-total PKB antibody is coupled. The detection is carried out on the following day by addition of a P-S473-PKB antibody and a species-specific PE-labelled secondary antibody. The detection of P-S473-PKB is carried out by measurement in a Luminex100 instrument by determination of 100 events per cavity in a measurement time of 60 sec. As pharmacological blank, the signals obtained from cells which have been treated with 3 μM wortmannin are subtracted from all other preparations. The control value used for maximum phosphorylation of PKB at S473 are the signals from cells which have been treated only with the solvent (0.3% DMSO). The values of the preparations treated with test substance are calculated from this as percent of control, and IC50 values are determined by means of RS1.

Another assay concerns the target DNA-PK protein complex (Homo sapiens, UniProt P78527). In words: DNA-PK kinase assay (FlashPlate, 33P-ATP). The class given is biochemical. Particulars: biotin-DNA-PK peptide substrate, 5 μM ATP, 90 minutes at room temperature. The procedure: Description of the Method for the Testing of DNA-PK Inhibitors
The kinase assay is carried out in […] microtitre FlashPlates®, coated with streptavidin. 1.5 μg of the DNA-PK protein complex and […] of biotinylated substrate, for example PESQEAFADLWKK biotin-NH2 (“biotin-DNA-PK peptide”) in a total volume of 36.5 μl (34.25 mM Hepes/KOH, 7.85 mM Tris-HCl, 68.5 mM KCl, 5 μM ATP, 6.85 mM MgCl2, 0.5 mM EDTA, 0.14 mM EGTA, 0.69 mM DTT, pH 7.4), are incubated at room temperature for 90 minutes with or without test substance in a well containing 500 ng of DNA from calf thymus, 0.1 μCi of 33P-ATP and 1.8% of DMSO. The reaction is stopped by addition of 50 μl/well of 200 mM EDTA. After incubation for 30 minutes, the liquids are removed at room temperature. Each well is washed three times with 100 μl of 0.9% NaCl solution. Non-specific reaction (blank) is determined using a proprietary kinase inhibitor (10 μM). The radioactivity is measured by means of a Topcount. IC50 values calculated in RS1. Literature: Molecular Cancer Therapeutics 2003, 1257-1264; DNA-dependent protein kinase inhibitors as drug candidates for the treatment of cancer; A. Kashishian, H. Douangpanya, D. Clark, S. T. Schlachter, C. Todd Eary, J. G. Schiro, H. Huang, L. E. Burgess, E. A. Kesicki, and J. Halbrook.

SMILES strings stand for the structures.

Results on 13 compounds are retold here after patent publication US9006255B2, “Quinazoline derivatives” (Merck Patent GmbH, priority 2010, dated 2015).

On to `c1ccc2c(c1)CCN2c1ncnc2ccc(-c3cnc4[nH]ccc4c3)cc12` [Compound A1, 4-(2,3-dihydroindol-1-yl)-6-(1H-pyrrolo[2,3-b]pyridin-5-yl)quinazoline], for which the IC50 (as a rule, the concentration that inhibits the measured activity by half) in the assay on PI3K lay within 100 to 10000 nM; on DNA-PK protein complex it was 1 to 100 nM. The corresponding values for `c1ccc2c(c1)CN(c1ncnc3ccc(-c4cnc5[nH]ccc5c4)cc13)C2` [Compound A2, 4-(1,3-dihydroisoindol-2-yl)-6-(1H-pyrrolo[2,3-b]pyridin-5-yl)quinazoline] are 100 to 10000 nM and 1 to 100 nM. Regarding `c1ccc2c(c1)CCCN2c1ncnc2ccc(-c3cnc4[nH]ccc4c3)cc12` [Compound A3, 4-(3,4-dihydro-2H-quinolin-1-yl)-6-(1H-pyrrolo[2,3-b]pyridin-5-yl)quinazoline], the IC50 with PI3K is 100 to 10000 nM; against DNA-PK protein complex, 1 to 100 nM. The corresponding values for `Cc1nc2cc(-c3ccc4ncnc(N5CCc6ccccc6C5)c4c3)cnc2[nH]1` [Compound A4, 4-(3,4-dihydro-1H-isoquinolin-2-yl)-6-(2-methyl-3H-imidazo[4,5-b]pyridin-6-yl)quinazoline] are 1 to 100 nM and 1 to 100 nM. The corresponding values for `Cc1nc2cc(-c3ccc4ncnc(N5CCCc6ccccc65)c4c3)cnc2[nH]1` [Compound A5, 4-(3,4-dihydro-2H-quinolin-1-yl)-6-(2-methyl-3H-imidazo-[4,5-b]pyridin-6-yl)quinazoline] are 100 to 10000 nM and 1 to 100 nM. The corresponding values for `c1ccc2c(c1)CCN(c1ncnc3ccc(-c4cnc5[nH]ccc5c4)nc13)C2` [Compound A6, 4-(3,4-dihydro-1H-isoquinolin-2-yl)-6-(1H-pyrrolo[2,3-b]pyridin-5-yl)pyrido[3,2-d]pyrimidine] are 100 to 10000 nM and 1 to 100 nM. With `COc1cc2c(cc1OC)CN(c1ncnc3ccc(-c4cnc5[nH]ccc5c4)nc13)CC2` [Compound A7, 4-(6,7-dimethoxy-3,4-dihydro-1H-isoquinolin-2-yl)-6-(1H-pyrrolo[2,3-b]pyridin-5-yl)pyrido[3,2-d]pyrimidine], the IC50 on DNA-PK protein complex was in the range of 1 to 100 nM. For the compound `Cc1nc2cc(-c3ccc4ncnc(N5CCc6ccccc6C5)c4n3)cnc2[nH]1` [Compound A8, 4-(3,4-dihydro-1H-isoquinolin-2-yl)-6-(2-methyl-3H-imidazo[4,5-b]pyridin-6-yl)-pyrido[3,2-d]pyrimidine], the IC50 in the assay on PI3K and at DNA-PK protein complex was 1 to 100 nM in each case.

As for `COc1cc2c(cc1OC)CN(c1ncnc3ccc(-c4cnc5[nH]c(C)nc5c4)nc13)CC2` [Compound A9, 4-(6,7-dimethoxy-3,4-dihydro-1H-isoquinolin-2-yl)-6-(2-methyl-3H-imidazo[4,5-b]pyridin-6-yl)pyrido[3,2-d]pyrimidine], the IC50 in the assay with PI3K and on DNA-PK protein complex was 1 to 100 nM throughout. As for `CCc1nc2cc(-c3ccc4ncnc(N5CCc6ccccc6C5)c4c3)cnc2[nH]1` [Compound A10, 4-(3,4-dihydro-1H-isoquinolin-2-yl)-6-(2-ethyl-3H-imidazo[4,5-b]pyridin-6-yl)quinazoline], the half-maximal inhibitory concentration (IC50) in the assay on PI3K and against DNA-PK protein complex was 1 to 100 nM each time. On to `COc1ccc2c(c1)CN(c1ncnc3ccc(-c4cnc5[nH]c(C)nc5c4)cc13)CC2` [Compound A11, 4-(7-methoxy-3,4-dihydro-1H-isoquinolin-2-yl)-6-(2-methyl-3H-imidazo[4,5-b]pyridin-6-yl)quinazoline], for which the 50% inhibitory concentration (IC50) in the assay with PI3K and on DNA-PK protein complex was 1 to 100 nM in each case. As for `Cc1nc2cc(-c3ccc4ncnc(N5CCOc6ccccc65)c4c3)cnc2[nH]1` [Compound A12, 4-[6-(2-methyl-3H-imidazo[4,5-b]pyridin-6-yl)quinazolin-4-yl]-3,4-dihydro-2H-benzo-1,4-oxazine], the half-inhibitory concentration (IC50) in the assay with PI3K is 100 to 10000 nM; at DNA-PK protein complex, 1 to 100 nM.

Regarding `Cc1nc2cc(-c3ccc4ncnc(N5CCC(=O)c6ccccc65)c4c3)cnc2[nH]1` [Compound A13, 1-[6-(2-methyl-3H-imidazo[4,5-b]pyridin-6-yl)quinazolin-4-yl]-2,3-dihydro-1H-quinolin-4-one], the IC50 in the assay with PI3K lay within 100 to 10000 nM; against DNA-PK protein complex, 1 to 100 nM.
